Results on 5 molecules are retold here after ChEMBL document CHEMBL4725368, “Novel C-7 carbon substituted fourth generation fluoroquinolones targeting N. Gonorrhoeae infections” (Bioorg Med Chem Lett, 2020).

As usually defined, the fraction unbound is the share of the substance not bound to proteins or other matrix. In general, MIC refers to the smallest concentration in the dilution series that meets the test's criterion for growth inhibition. What is called IC50 is the point on the concentration scale where inhibition reaches its midpoint. The pKa is the pH at which an ionisable group is half protonated. The term kinetic solubility denotes the concentration staying in solution when a stock, usually in DMSO, is diluted into the medium. For orientation: inhibition means the drop in the measured response relative to a control, in per cent. Lower therefore signals a weak effect. For orientation: logD means lipophilicity at a set pH, counting ionised and neutral species. As a reminder, the bioavailability is the share of a dose that reaches the circulation, judged against a reference dose that is usually intravenous. The term MIC90 denotes an inhibitory concentration at the 90% level, which refers to growth in some studies and to a panel of isolates in others.

Series [1] in a line: in vitro. To be noted: human, plasma.
Description: Protein binding in human plasma assessed as free fraction
In series [2] the test system is Pseudomonas aeruginosa. Kind of series: Antibacterial activity against Pseudomonas aeruginosa PAO1 assessed as reduction in bacterial growth by CLSI protocol based microdilution method. It is filed as functional. In general terms: Broth dilution looks for growth in wells or tubes with falling amounts of substance.
For series [3], the target named is Cytochrome P450 2C9 (Homo sapiens, UniProt P11712).
Cytochrome P450 2C9, sequence (P11712 whole entry): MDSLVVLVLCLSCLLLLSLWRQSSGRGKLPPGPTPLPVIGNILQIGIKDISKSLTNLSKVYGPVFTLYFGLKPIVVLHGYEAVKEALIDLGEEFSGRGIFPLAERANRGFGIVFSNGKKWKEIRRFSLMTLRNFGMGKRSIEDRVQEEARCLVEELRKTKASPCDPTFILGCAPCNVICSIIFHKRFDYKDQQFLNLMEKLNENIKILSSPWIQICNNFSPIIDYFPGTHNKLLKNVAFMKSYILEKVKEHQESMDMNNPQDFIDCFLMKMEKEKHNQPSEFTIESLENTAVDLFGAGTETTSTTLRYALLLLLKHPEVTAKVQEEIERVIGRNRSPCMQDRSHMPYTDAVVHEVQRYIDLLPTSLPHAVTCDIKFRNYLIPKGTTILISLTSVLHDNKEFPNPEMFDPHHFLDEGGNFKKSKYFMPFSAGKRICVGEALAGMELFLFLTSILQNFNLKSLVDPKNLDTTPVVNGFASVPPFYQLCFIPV
Description: Inhibition of CYP2C9 (unknown origin)
A short description of series [4]: Intrinsic clearance in human liver microsomes. It counts as ADME, Microsome. To be noted: read-out: CLH. (In general: Liver microsomes are vesicles of endoplasmic reticulum, rich in cytochrome P450 enzymes.)
Series [5] has as its system Staphylococcus aureus. Kind of series: Antibacterial activity against Staphylococcus aureus ATCC 29213 assessed as reduction in bacterial growth by CLSI protocol based microdilution method. It is filed as functional.
In series [6] the test system is Escherichia coli. Kind of series: Antibacterial activity against Escherichia coli ATCC 25922 assessed as reduction in bacterial growth by CLSI protocol based microdilution method. It counts as functional.
Series [7] has as its target T1, Cytochrome P450 1A2 (Homo sapiens, UniProt P05177).
T1 sequence (P05177 whole entry): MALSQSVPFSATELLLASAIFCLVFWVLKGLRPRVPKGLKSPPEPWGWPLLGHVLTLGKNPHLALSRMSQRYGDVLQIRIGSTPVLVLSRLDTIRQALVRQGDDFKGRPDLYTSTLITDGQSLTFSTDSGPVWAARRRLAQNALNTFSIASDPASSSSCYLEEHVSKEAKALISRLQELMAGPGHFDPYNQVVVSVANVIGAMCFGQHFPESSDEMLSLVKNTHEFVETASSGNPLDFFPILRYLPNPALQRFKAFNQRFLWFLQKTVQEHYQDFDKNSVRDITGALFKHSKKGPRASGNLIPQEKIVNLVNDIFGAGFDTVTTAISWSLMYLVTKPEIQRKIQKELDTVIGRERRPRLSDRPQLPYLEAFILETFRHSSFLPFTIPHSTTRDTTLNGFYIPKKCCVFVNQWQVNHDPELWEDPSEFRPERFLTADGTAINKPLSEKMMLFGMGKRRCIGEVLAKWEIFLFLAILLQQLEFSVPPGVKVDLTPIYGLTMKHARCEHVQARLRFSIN
Description: Inhibition of CYP1A2 (unknown origin)

Series [8] is described as follows: Acid dissociation constant, pKa of the compound. It is filed as physicochemical.
The test system of series [9] is Enterococcus faecalis. Kind of series: Antibacterial activity against Enterococcus faecalis ATCC 29212 assessed as reduction in bacterial growth by CLSI protocol based microdilution method. It is filed as functional.
Series [10] is described as follows: physchem.
Description: Kinetic solubility of the compound
The target in series [11] is Cytochrome P450 3A4 (Homo sapiens, UniProt P08684).
Cytochrome P450 3A4, sequence (P08684 whole entry): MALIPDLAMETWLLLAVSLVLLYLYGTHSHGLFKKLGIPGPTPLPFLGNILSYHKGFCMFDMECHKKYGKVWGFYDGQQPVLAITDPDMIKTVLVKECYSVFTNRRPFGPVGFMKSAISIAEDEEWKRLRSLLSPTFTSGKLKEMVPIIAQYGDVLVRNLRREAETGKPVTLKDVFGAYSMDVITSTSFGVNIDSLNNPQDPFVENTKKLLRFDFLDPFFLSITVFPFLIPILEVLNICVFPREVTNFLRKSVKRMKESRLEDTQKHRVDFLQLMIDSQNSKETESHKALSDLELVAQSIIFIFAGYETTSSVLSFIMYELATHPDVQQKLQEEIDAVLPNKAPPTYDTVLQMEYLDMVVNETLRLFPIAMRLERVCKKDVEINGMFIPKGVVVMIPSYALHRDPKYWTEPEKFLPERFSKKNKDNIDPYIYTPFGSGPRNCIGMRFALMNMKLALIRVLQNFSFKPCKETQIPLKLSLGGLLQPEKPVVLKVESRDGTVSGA
Description: Inhibition of CYP3A4 (unknown origin)
The target of series [12] is T2, hERG (KCNH2) (Homo sapiens, UniProt Q12809). Briefly: Inhibition of human ERG at 30 uM relative to control.
T2 sequence (Q12809 whole entry): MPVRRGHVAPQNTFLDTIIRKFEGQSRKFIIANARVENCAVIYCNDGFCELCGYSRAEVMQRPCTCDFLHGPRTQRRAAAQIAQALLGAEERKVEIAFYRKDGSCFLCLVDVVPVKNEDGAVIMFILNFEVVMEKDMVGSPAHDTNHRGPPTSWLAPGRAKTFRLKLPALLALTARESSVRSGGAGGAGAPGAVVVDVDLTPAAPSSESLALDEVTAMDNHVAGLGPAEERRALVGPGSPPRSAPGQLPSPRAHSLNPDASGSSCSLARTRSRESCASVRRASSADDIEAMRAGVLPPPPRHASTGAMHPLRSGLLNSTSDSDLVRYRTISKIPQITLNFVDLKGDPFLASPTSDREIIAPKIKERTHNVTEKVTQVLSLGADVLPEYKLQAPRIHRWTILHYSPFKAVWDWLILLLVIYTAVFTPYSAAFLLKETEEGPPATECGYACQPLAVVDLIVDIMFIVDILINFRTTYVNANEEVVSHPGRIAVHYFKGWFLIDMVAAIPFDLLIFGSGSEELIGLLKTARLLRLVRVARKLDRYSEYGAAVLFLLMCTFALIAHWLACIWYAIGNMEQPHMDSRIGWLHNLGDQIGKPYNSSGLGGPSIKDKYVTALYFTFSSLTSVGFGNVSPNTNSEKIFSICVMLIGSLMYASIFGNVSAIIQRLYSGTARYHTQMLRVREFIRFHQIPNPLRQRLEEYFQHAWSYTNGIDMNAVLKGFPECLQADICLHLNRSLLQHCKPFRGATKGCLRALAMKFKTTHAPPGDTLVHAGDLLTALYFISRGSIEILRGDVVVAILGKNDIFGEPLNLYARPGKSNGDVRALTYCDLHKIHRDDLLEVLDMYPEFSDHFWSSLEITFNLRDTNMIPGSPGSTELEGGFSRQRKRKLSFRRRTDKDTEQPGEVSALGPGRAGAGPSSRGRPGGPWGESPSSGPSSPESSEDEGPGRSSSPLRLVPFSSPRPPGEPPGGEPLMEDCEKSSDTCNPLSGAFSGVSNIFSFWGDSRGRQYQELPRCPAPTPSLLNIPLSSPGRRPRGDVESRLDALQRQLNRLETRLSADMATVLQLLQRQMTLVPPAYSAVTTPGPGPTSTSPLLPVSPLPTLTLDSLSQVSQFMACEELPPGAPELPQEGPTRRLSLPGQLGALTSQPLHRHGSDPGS
Series [13] has as its target Cytochrome P450 2D6 (Homo sapiens, UniProt P10635).
Description: Inhibition of CYP2D6 (unknown origin)
Series [14] is described as follows: physchem. To be noted: octanol/water, pH 7.4.
Description: Distribution coefficient, logD of the compound at pH 7.4
Series [15] deals with Klebsiella pneumoniae. Kind of series: Antibacterial activity against Klebsiella pneumoniae ATCC 700603 assessed as reduction in bacterial growth by CLSI protocol based microdilution method. It is filed as functional.
Series [16] is described as follows: Intrinsic clearance in human hepatocytes assessed per 10^6 cells. The settings on record: read-out: CLH. It is filed as ADME, cell-based, Hepatocyte.
The test system of series [17] is Neisseria gonorrhoeae. Kind of series: Antibacterial activity against Neisseria gonorrhoeae ATCC 49226 assessed as reduction in bacterial growth by CLSI protocol based microdilution method. It counts as functional.
For series [18], the system named is Acinetobacter baumannii. Kind of series: Antibacterial activity against Acinetobacter baumannii ATCC 19606 assessed as reduction in bacterial growth by CLSI protocol based microdilution method. It is filed as functional. The settings on record: ATCC 19606 = CIP 70.34 = JCM 6841.
In series [19] the target is Cytochrome P450 2C19 (Homo sapiens, UniProt P33261).
Cytochrome P450 2C19, sequence (P33261 whole entry): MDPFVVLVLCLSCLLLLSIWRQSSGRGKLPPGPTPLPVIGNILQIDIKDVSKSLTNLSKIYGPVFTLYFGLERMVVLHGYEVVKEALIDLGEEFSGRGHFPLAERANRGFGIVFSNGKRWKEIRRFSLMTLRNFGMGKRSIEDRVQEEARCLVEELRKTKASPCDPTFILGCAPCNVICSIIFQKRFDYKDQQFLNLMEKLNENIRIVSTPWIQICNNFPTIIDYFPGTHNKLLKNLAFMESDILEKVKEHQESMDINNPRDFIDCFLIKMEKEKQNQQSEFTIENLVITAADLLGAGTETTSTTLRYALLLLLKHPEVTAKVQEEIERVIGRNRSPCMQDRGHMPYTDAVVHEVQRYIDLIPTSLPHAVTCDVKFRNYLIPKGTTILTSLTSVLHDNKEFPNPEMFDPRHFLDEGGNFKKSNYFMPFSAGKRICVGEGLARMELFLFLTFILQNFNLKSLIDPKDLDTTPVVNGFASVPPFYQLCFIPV
Description: Inhibition of CYP2C19 (unknown origin)
Series [20] has as its system Neisseria gonorrhoeae. Kind of series: Antibacterial activity against fluoroquinolone-resistant Neisseria gonorrhoeae WHO L harboring multiple point mutations at DNA gyrase and topoisomerase IV and porB1b mutation assessed as reduction in bacterial growth by CLSI protocol based microdilution method. It is filed as functional.
The target in series [21] is T2, hERG (KCNH2). Briefly: Inhibition of human ERG at 100 uM relative to control.
Series [22] is described as follows: Oral bioavailability in human at 400 mg measured every 12 hrs. It counts as ADME, organism-based. To be noted: in vivo.
The nature of series [23]: Oral bioavailability in human at 450 mg measured every 12 hrs. The settings on record: in vivo. It counts as ADME, organism-based.
Series [24] addresses Voltage-gated inwardly rectifying potassium channel KCNH2 (Homo sapiens, UniProt Q12809). Kind of series: Inhibition of human ERG up to 185 uM.
The subject of series [25] is Neisseria gonorrhoeae. Kind of series: Antibacterial activity against Neisseria gonorrhoeae assessed as reduction in bacterial growth. It counts as functional.

Converted amounts (≈) assume the structure as drawn.

Cytochrome P450 2D6, sequence (P10635 whole entry): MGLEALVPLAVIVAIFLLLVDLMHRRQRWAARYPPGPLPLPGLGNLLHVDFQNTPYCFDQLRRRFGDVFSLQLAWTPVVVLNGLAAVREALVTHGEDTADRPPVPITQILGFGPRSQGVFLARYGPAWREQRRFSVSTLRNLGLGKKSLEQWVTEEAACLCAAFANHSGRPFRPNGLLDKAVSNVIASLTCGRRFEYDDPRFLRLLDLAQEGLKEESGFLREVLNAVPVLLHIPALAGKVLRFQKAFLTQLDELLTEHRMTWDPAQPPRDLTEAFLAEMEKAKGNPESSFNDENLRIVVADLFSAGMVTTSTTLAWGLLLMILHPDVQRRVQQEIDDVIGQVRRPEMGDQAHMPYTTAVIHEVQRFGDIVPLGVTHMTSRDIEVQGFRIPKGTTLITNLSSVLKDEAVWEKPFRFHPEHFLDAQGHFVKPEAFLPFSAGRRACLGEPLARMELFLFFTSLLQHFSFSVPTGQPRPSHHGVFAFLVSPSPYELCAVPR
Voltage-gated inwardly rectifying potassium channel KCNH2, sequence (Q12809 whole entry): as the sequence (Q12809 whole entry) above

`Nc1nc(-n2cc(C(=O)O)c(=O)c3cc(F)c(N4CC(N)C4)c(Cl)c32)c(F)cc1F` came in with a fraction unbound in series [1] of 0.297. Further, the MIC in series [2] came out at 0.12 µg/mL (≈ 0.273 µM); in [5] it was 0.003 µg/mL (≈ 0.00682 µM); in series [6], 0.001 µg/mL (≈ 0.00227 µM); in series [9] it was 0.12 µg/mL (≈ 0.273 µM); in [15], 0.25 µg/mL (≈ 0.568 µM); in [17] it was 0.007 µg/mL (≈ 0.0159 µM). Moreover, the values for the MIC in series [18] and in [20] were 2 µg/mL (≈ 4.55 µM) and 0.06 µg/mL (≈ 0.136 µM), respectively. Also, the half-inhibitory concentration (IC50) in [3] was 12.7 µM; in series [7] it was > 50 µM; in series [11], 13.6 µM; in series [13], > 50 µM; in series [19], > 50 µM. Besides, in series [4], the microsomal CLint was < 5 µL/min/mg. This molecule came in with a pKa in [8] of 5.33. The same molecule gave a kinetic solubility in series [10] of 3.6 µM (≈ 1.58 µg/mL). Moreover, 30 µM produced 6% inhibition in series [12]. The logD in [14] was -0.3. In addition, the hepatocyte CLint in series [16] stood at 3 µL/min/1e6 cells.
`Nc1nc(-n2cc(C(=O)O)c(=O)c3cc(F)c([C@H]4C[C@@H](O)C4)c(Cl)c32)c(F)cc1F` came in with a fraction unbound in [1] of 0.124. In addition, the MIC in series [2] was 4 µg/mL (≈ 9.1 µM); in series [5], 0.03 µg/mL (≈ 0.0682 µM); in series [6], 0.12 µg/mL (≈ 0.273 µM); in series [9] it was 0.25 µg/mL (≈ 0.568 µM); in series [15], 4 µg/mL (≈ 9.1 µM); in [17], 0.06 µg/mL (≈ 0.136 µM). The MIC in [18] came out at 16 µg/mL (≈ 36.4 µM); in series [20], 0.12 µg/mL (≈ 0.273 µM). Moreover, the IC50 was > 50 µM in series [3]; > 50 µM in series [7]; 24.8 µM in [11]; > 50 µM in [13]; > 50 µM in series [19]. In addition, the microsomal CLint in series [4] is < 5 µL/min/mg. The pKa in [8] turned out to be 4.96. This molecule came in with an inhibition at 100 µM in series [21] of 15%. The molecule also showed a kinetic solubility in [10] of 44.8 µM (≈ 19.7 µg/mL). In series [14], the logD is 0.3. For the same molecule, in [16], the hepatocyte CLint was determined as 9.2 µL/min/1e6 cells.
Molecule `COc1c(N2C[C@@H]3CCCN[C@@H]3C2)c(F)cc2c(=O)c(C(=O)O)cn(C3CC3)c12` [MOXIFLOXACIN] came in with a bioavailability in series [22] of 92%.
`Nc1nc(-n2cc(C(=O)O)c(=O)c3cc(F)c([C@H]4C[C@H](O)C4)c(Cl)c32)c(F)cc1F` yielded a free fraction (fraction unbound) in series [1] of 0.105. Moreover, the minimum inhibitory concentration (MIC) stood at 2 µg/mL (≈ 4.55 µM) in series [2]; 0.03 µg/mL (≈ 0.0682 µM) in series [5]; 0.12 µg/mL (≈ 0.273 µM) in series [6]; 0.5 µg/mL (≈ 1.14 µM) in [9]; 8 µg/mL (≈ 18.2 µM) in series [15]; 0.01 µg/mL (≈ 0.0227 µM) in series [17]. In addition, the minimum inhibitory concentration (MIC) came to 64 µg/mL (≈ 146 µM) in series [18] and 0.12 µg/mL (≈ 0.273 µM) in [20]. Further, the half-inhibitory concentration (IC50) in series [3] is 41.7 µM; in [7], > 50 µM; in [11] it was > 50 µM; in series [13] it was > 50 µM; in series [19], > 50 µM. In series [4], the microsomal CLint was < 5 µL/min/mg. In addition, the pKa in series [8] amounted to 5.04. The molecule further registered an inhibition at 100 µM in series [21] of 18%. The molecule also displayed a solubility (kinetic) in series [10] of 59.3 µM (≈ 26.1 µg/mL). The log distribution coefficient (logD) in [14] is 0.3. Also, the hepatocyte CLint in series [16] was 6.8 µL/min/1e6 cells.
Turning to `Nc1nc(-n2cc(C(=O)O)c(=O)c3cc(F)c(N4CC(O)C4)c(Cl)c32)c(F)cc1F` [DELAFLOXACIN], the free fraction (fraction unbound) in [1] worked out at 0.149. The MIC is 1 µg/mL (≈ 2.27 µM) in series [2]; 0.003 µg/mL (≈ 0.00681 µM) in [5]; 0.01 µg/mL (≈ 0.0227 µM) in series [6]; 0.03 µg/mL (≈ 0.0681 µM) in [9]; 0.25 µg/mL (≈ 0.567 µM) in [15]; ≥ 0.008 µg/mL in series [25]. Also, the MIC is 0.06 µg/mL (≈ 0.136 µM) in series [17], 8 µg/mL (≈ 18.2 µM) in [18] and 0.03 µg/mL (≈ 0.0681 µM) in [20]. The half-maximal inhibitory concentration (IC50) in series [3], in series [7], in series [13] and in series [19] was > 50 µM throughout. Besides, the microsomal CLint in series [4] was < 5 µL/min/mg. This molecule also gave a pKa in series [8] of 5.47. Also, testing at 100 µM in series [21] gave an inhibition of 19%. For the same molecule, the bioavailability in series [23] came out at 59%. For the same molecule, the solubility (kinetic) in series [10] was found to be 58.1 µM (≈ 25.6 µg/mL). Besides, the “inhibition (INH)” value in [24] is listed as “Not Active”. In addition, the logD in [14] amounted to 0.7. Further, the hepatocyte CLint in [16] was 3 µL/min/1e6 cells. The MIC90 in series [25] was determined as 0.125 µg/mL (≈ 0.284 µM).
